Values quoted from earlier work as cited in US12225905B2, “Antimicrobial superabsorbent compositions” (Matoke Holdings Limited, priority 2017, dated 2025).

Settings: 20° C. and 1 atm

- solubility: about 375 g/100 g water
Compound: O=C(CO)[C@@H](O)[C@H](O)[C@H](O)CO [Fructose]
